Legend:
BxPC3 tumors [1] = test: Protocol 146: ^212Pb-DOTAM biodistribution and absorbed dose estimation after PRIT; assay type: in vivo, SCID mice; settings: for Mean absorbed dose, RBE = 1 / Mean absorbed dose, RBE = 5: 20 μCi pretargeted ^212Pb-DOTAM, tumor-bearing SCID
Protocol: Protocol 146 was designed to provide in vivo ^212Pb-DOTAM distribution data after PRIT for estimations of the absorbed radioactive dose to tumor and normal tissues, in SCID mice carrying s.c. BxPC3 tumors. The quenching of ^212Pb-DOTAM was performed using Ca (see example 34).
Pretargeting was performed by injection of CEA-DOTAM BsAb, followed 7 days later by the CA. After 24 hours, the ^212Pb-DOTAM was administered. Groups of mice were sacrificed at multiple time points from 5 minutes to 48 hours after the radioactive injection, and blood and organs harvested for radioactive measurement. Excrements were sampled at selected time points by use of metabolic cages to assess the excretion rate of the radioactive compound. Absorbed doses were finally calculated through established methods using the resulting time-activity curves.
Solid xenografts were established by s.c. injection of BxPC3 cells into SCID mice (Envigo) aged 8 weeks.
Mice in group E and F were individually housed (i.e. one mouse per cage) in grilled-floor metabolic cages. Urine and feces were collected from each cage 2, 6, and 24 hours after the radioactive injection, and the individual samples subsequently measured for radioactivity. Mice in group F were transferred to a regular cage 24 hours p.i.
Blood/serum was collected from all mice through retro-orbital bleeding before termination. After euthanasia, the following additional organs and tissues were harvested for radioactivity measurement and calculation of % ID/g: bladder, uterus, small intestine, colon, spleen, pancreas, kidneys, stomach, liver, lung, heart, brain, femoral bone, skin, muscle, abdominal fat, tail, and tumor.
Absorbed doses were calculated following the formalism outlined in Pamphlet No. 21 from the Medical Internal Radiation Dose (MIRD) Committee (Bolch W E, Eckerman K F, Sgouros G, and Thomas S R. J Nucl Med 2009; 50:477-484).
Formally, the absorbed dose D(rT) in a target tissue or region rT is calculated as the time-integral of the activity A(rS, t) multiplied by the absorbed dose rate per unit activity S(rT ←rS), summed over all source regions rS. Given that the vast majority of energy released by the ^212Pb decay chain comes from alpha radiation and furthermore by the much higher biological effectiveness of alpha radiation (as characterized by the relative biological effectiveness, RBE) two approximations were made: • 1. the energy is absorbed locally due to the short range of the alpha particles, which means that only the term S(rT←rT) is considered, and • 2. the contribution from beta and gamma radiation is neglected.
With Δα being the energy released by alpha decays, or rather the sum of the mean energies released by alpha decays in the decay chain of ^212Pb, here expressed in units J/(μCi·h), the absorbed dose in a target tissue or region rT is calculated by the formula: […]
The calculations are based on the composite (average) decay-corrected radioactive concentration at time t, expressed as [% ID/g]t. In a first step, these are transformed into radioactive concentrations as μCi per kg tissue weight for the target tissue rT:
A0[μCi]is the injected activity and λ is the exponential decay rate for ^212Pb, 0.0651 h^−1 (corresponding to the 10.6-hour half-life).
In a second step, the radioactive concentration was integrated over time for each tissue. This was achieved using the “Linear Log Trapezoidal calculation method” in the pharmacokinetic software Phoenix WinNonlin 6.4 (Certara USA, Inc., 100 Overlook Center, Suite 101, Princeton, NJ 08540 USA). The model type “Plasma” was used with uniform weighting.
In the final step, absorbed doses were calculated by multiplying the time integrals of the radioactive concentration by the energy release Δα=170·10^−6J/(μCi·h).

BxPC3 tumors [2] = test: Protocol 93a: efficacy and biodistribution of CEA-PRIT, BxPC3 model; assay type: in vivo, mice; settings: day 47; 30+30 μCi
Protocol: The bispecific antibodies were compared side-by-side in single- and double-cycle treatment regimens.
Groups A-G represent the treated mice that were followed up for assessment of efficacy, whereas groups H-L comprise mice that were sacrificed for biodistribution purposes 24 h after their last ^212Pb-DOTAM injection.
For protocol 93a, mice (age 7 weeks) were injected s.c. into the right flank with 5×10^6 BxPC3 cells (passage 33) in 100 μL RPMI/Matrigel. Twelve days after tumor cell injection, mice were sorted into experimental groups with an average tumor volume of 235 mm^3.
To minimize re-ingestion of radioactive urine/feces after treatment cycle 1, cages were changed 4 hours after ^212Pb-DOTAM administration, and then again at 24 h p.i. […]
The tumor development in the mice was followed through repeated calipering three times a week. […] The body weight of the animals was measured repeatedly in the same fashion. […]
Mice in groups H, J, and L were sacrificed and necropsied 24 hours after their first and only injection of ^212Pb-DOTAM; groups I and K were sacrificed and necropsied 24 hours after their second ^212Pb-DOTAM injection. […] Collected samples were weighed and measured for radioactivity, and the percent injected dose per gram of tissue (% ID/g) subsequently calculated, including corrections for decay and background.

## NC(=O)CN1CCN(CC(N)=O)CCN(CC(N)=O)CCN(CC(N)=O)CC1.[212Pb+2] [^212Pb-DOTAM]
BxPC3 tumors [1]; 5 minutes after injection, pretargeted by CEA-DOTAM BsAb
  accumulation of radioactivity in tumor: 17 % ID/g
BxPC3 tumors [1]; Blood
  Mean absorbed dose, RBE = 1: 0.72 Gy
  Mean absorbed dose, RBE = 5: 3.60 Gy
BxPC3 tumors [1]; Brain
  Mean absorbed dose, RBE = 1: 0.04 Gy
  Mean absorbed dose, RBE = 5: 0.19 Gy
BxPC3 tumors [1]; Colon
  Mean absorbed dose, RBE = 1: 0.43 Gy
BxPC3 tumors [1]; Femoral bone
  Mean absorbed dose, RBE = 1: 0.27 Gy
BxPC3 tumors [1]; Heart
  Mean absorbed dose, RBE = 1: 0.33 Gy
BxPC3 tumors [1]; Liver
  Mean absorbed dose, RBE = 1: 0.22 Gy
BxPC3 tumors [1]; Muscle
  Mean absorbed dose, RBE = 1: 0.29 Gy
BxPC3 tumors [1]; Pancreas
  Mean absorbed dose, RBE = 1: 0.36 Gy
  Mean absorbed dose, RBE = 5: 1.80 Gy
BxPC3 tumors [1]; Serum
  Mean absorbed dose, RBE = 5: 8.20 Gy
BxPC3 tumors [1]; Skin
  Mean absorbed dose, RBE = 1: 0.47 Gy
BxPC3 tumors [1]; Small intestine
  Mean absorbed dose, RBE = 1: 0.22 Gy
BxPC3 tumors [1]; Spleen
  Mean absorbed dose, RBE = 1: 0.27 Gy
BxPC3 tumors [1]; Stomach
  Mean absorbed dose, RBE = 1: 0.24 Gy
  Mean absorbed dose, RBE = 5: 1.20 Gy
BxPC3 tumors [1]; Tail
  Mean absorbed dose, RBE = 1: 0.54 Gy
BxPC3 tumors [1]; Uterus
  Mean absorbed dose, RBE = 1: 0.61 Gy
BxPC3 tumors [2]
  tumor growth inhibition (TGI) compared with PBS: 15.8%

— patent US20260015436A1, “ANTIBODIES FOR CHELATED RADIONUCLIDES” (Hoffmann-La Roche Inc., priority 2018, published 2026)
